Results reported in patent publication US20230382928A1, “EUROPIUM(III) COMPLEXES AS PH SENSORS” (CISBIO BIOASSAYS, priority 2020, published 2023).

Key:
[1] = pKa determination from emission lifetime variation versus pH
Experimental: (§2) An emission lifetime value at each pH was obtained by plotting the decay of the emission lifetime over time and fitting the curve to a simple exponential decay model. The pKa values of the complexes were determined for the reversible protonation.

[2] = Excited state (emission) lifetime at different pH; format: physicochemical
Experimental: as §2

[3] = Quantum yield of europium complexes at different pH; format: physicochemical; conditions: for Q.Y. pH 4 / Q.Y. pH 8: text gives the same values in %; for Q.Y. pH 4 / ΦpH 4 (quantum yield): pH 4; for ΦpH 4 (quantum yield) / ΦpH 8 (quantum yield): λexc 330-332 nm; for Q.Y. pH 8 / ΦpH 8 (quantum yield): pH 8
Experimental: The properties of representative complexes of the invention (complexes 14, 18, 21, 78a, 78b, 88a, 88b, 93, 104) were investigated. The presence of the Boc-group was not predicted to alter these properties. The experiments were thus carried out with the Boc group for the functionalized complexes. […]
(§1) Traditionally, molar extinction coefficients, ε, are calculated using the Beer-Lambert equation and involve measuring the absorbance of a series of solutions of a complex at different known concentrations. A plot of absorbance at a particular wavelength against concentration allows determination of ε from the gradient of the linear correlation. The quantum yield (QY) of the complexes increases as the pH decreases. For complexes 78b, 88a, 88b and 93, the quantum yield at pH 8 is approaching 0 meaning that the complexes are therefore hardly emissive at physiological pH and conversely, these complexes are very bright at pH 4.

[4] = Absorption spectra / molar extinction coefficient (Beer-Lambert); format: physicochemical; conditions: for λexc (nm): excitation wavelength; for ε: molar extinction coefficient at λexc
Experimental: The properties of representative complexes of the invention (complexes 14, 18, 21, 78a, 78b, 88a, 88b, 93, 104) were investigated. The presence of the Boc-group was not predicted to alter these properties. The experiments were thus carried out with the Boc group for the functionalized complexes. The absorption and emission spectra were recorded in a pH gradient (pH 4 to pH 10).
as §1
This could be useful as excitation at, or near, this wavelength would allow equal excitation of both the unprotonated and protonated complex, which exist in a pH-dependent equilibrium in solution. An isosbestic point was not observed for Complex 14.

[5] = Time-gated emission intensity, pH 4/pH 8 ratio; format: physicochemical; conditions: λem=613.5 nm
Source text: Data was normalised for a 60 μs delay at pH 4.
Data were normalised for a 60-460 μs time window at pH 4. Measurements were taken in NH4CH3CO2 (pH 4 and 5), MES (pH 5.5, 6 and 6.5), HEPES (pH 7) and NH4HCO3 (pH 8) buffers (all 0.1 M with 0.1 M NaCl).
A benefit of the long-lived lifetime of emission for the lanthanides is the possibility of performing time-gated measurements. Further to this, as a result of the ‘switch-on’ nature of complex 18, the unprotonated and protonated forms differ in emission lifetime. These properties allow the unique opportunity to control, to some degree, the apparent pKa value as well as the relative degree of ‘switching-on’ of the probe by changing the time window. This aspect is illustrated in practice using appropriate buffers of different pH (in the presence of 0.1 M NaCl) in FIG. 28.
By measuring the emission intensity of the hypersensitive ΔJ=2 band at different pH with a longer delay time after excitation (FIG. 28 top), a shallower curve was obtained (a lower apparent pKa).
A summary of the ratios of emission intensity (at λem=613.5 nm) at pH 4 (sensor on) and pH 8 (sensor off), where the emission signal was measured between different time windows, for complex 18 is presented in Table 4.
The extent of the switch-on response of the complex may be quantified, for comparison purposes, as the ratio of the emission intensity at the maximum of the ΔJ=2 band at pH 4, when the sensor is fully switched ‘on’, and pH 8, when the sensor is effectively ‘off’.

[6] = Fluorescence intensity at 620 nm as a function of pH (Pherastar FS plate reader); format: physicochemical; conditions: pH 4 to pH 7.8; 0.1% BSA; FIG. 29
Experimental: The fluorescence intensity of representative complexes of the invention (78a, 78b, 104) was measured using a Plate Reader Pherastar FS equipped with a flash lamp. The buffers (pH 4 to pH 7.8) were distributed in a white 96-well plate, then the lanthanide complexes (10 μL at 110 nM) were distributed in an aqueous solution comprising 0.1% BSA. By way of comparison, the fluorescence intensity of the following complexes was also measured: […]

ε (molar extinction coefficient) ([4]; at the wavelength (330-336 nm)) | SMILES | pKa ([1]; 295 K, I = 0.1M NaCl) | Excited state lifetime ([2]; pH 4) | Excited state lifetime ([2]; pH 5) | Excited state lifetime ([2]; pH 6) | Excited state lifetime ([2]; pH 7) | Excited state lifetime ([2]; pH 8) | Q.Y. pH 4 [3] | ΦpH 4 (quantum yield) [3] | Q.Y. pH 8 [3] | ΦpH 8 (quantum yield) [3] | λexc (nm) [4] | ε [4] | Excited state lifetime ([2]; pH 9) | ε (molar extinction coefficient) ([4]; at the wavelength (330-331 nm)) | variation of fluorescence intensity at 620 nm as a function of pH [6] | further results
 | CCN(CC)c1cc(C#Cc2cc(CN3CCN(Cc4cccc(P(C)(=O)[O-])n4)CCN(Cc4cc(C#Cc5ccc(OC)c(N(CC)CC)c5)cc(P(C)(=O)[O-])n4)CC3)nc(P(C)(=O)[O-])c2)ccc1OC.[Eu+3] [Complex 18] | 6.3 |  | 0.96 ms | 0.78 ms | 0.47 ms | 0.34 ms | 17.6% |  | 0.2% |  | 328 nm | 35000 M⁻¹ cm⁻¹ | 0.34 ms |  |  | Excited state lifetime ([2]; pH 3): 1 ms; Excited state lifetime ([2]; pH 4, listed as 18): 1 ms; Excited state lifetime ([2]; pH 4, listed as drawing 63): 1.00 ms; ratio of emission intensity pH 4/pH 8 ([5]; time window 60-460 μs): 32; ratio of emission intensity pH 4/pH 8 ([5]; time window 1000-2000 μs): 227; ratio of emission intensity pH 4/pH 8 ([5]; time window 1500-2500 μs): 465
 | CCN(CC)c1cc(C#Cc2cc(CN3CCN(Cc4cc(C#Cc5ccc(OC)c(N(CC)CC)c5)cc(P(C)(=O)[O-])n4)CCN(Cc4cc(C#Cc5ccc(OC)c(N(CC)CC)c5)cc(P(C)(=O)[O-])n4)CC3)nc(P(C)(=O)[O-])c2)ccc1OC.[Eu+3] [Complex 21] | 6.21 | 0.84 ms | 0.83 ms | 0.59 ms | 0.32 ms | 0.25 ms | 17% |  | 0.1% |  | 331 nm | 45000 M⁻¹ cm⁻¹ | 0.24 ms | 45000 L M^−1 cm^−1 |  | 
 | CCN(CC)c1cc(C#Cc2cc(CN3CCN(Cc4cc(C#Cc5ccc(OCCCC(=O)O)c(N(CC)CC)c5)cc(P(C)(=O)[O-])n4)CCN(Cc4cc(CCCNC(=O)OC(C)(C)C)cc(P(C)(=O)[O-])n4)CC3)nc(P(C)(=O)[O-])c2)ccc1OCCCC(=O)O.[Eu+3] [Complex 77a] |  | 0.97 ms | 0.95 ms | 0.53 ms | 0.39 ms | 0.27 ms |  |  |  |  |  |  |  |  |  | 
 | CCN(CC)c1cc(C#Cc2cc(CN3CCN(Cc4cc(C#Cc5ccc(OCCCC(=O)NCCCS(=O)(=O)[O-])c(N(CC)CC)c5)cc(P(C)(=O)[O-])n4)CCN(Cc4cc(CCCNC(=O)OC(C)(C)C)cc(P(C)(=O)[O-])n4)CC3)nc(P(C)(=O)[O-])c2)ccc1OCCCC(=O)NCCCS(=O)(=O)[O-].[Eu+3] [Complex 78a] | 6.20 | 1.04 ms | 0.98 ms |  | 0.34 ms | 0.25 ms | 16% | 16% | 0.3% | 0.3% | 330 nm | 39000 M⁻¹ cm⁻¹ |  | 39000 L M^−1 cm^−1 | pH sensitive | Excited state lifetime ([2]; pH 6, listed as 78a): 0.7 ms; Excited state lifetime ([2]; pH 6, listed as drawing 109): 0.70 ms
 | CCN(C)c1cc(C#Cc2cc(CN3CCN(Cc4cc(C#Cc5ccc(OCCCC(=O)NCCCS(=O)(=O)[O-])c(N(C)CC)c5)cc(P(C)(=O)[O-])n4)CCN(Cc4cc(CCCNC(=O)OC(C)(C)C)cc(P(C)(=O)[O-])n4)CC3)nc(P(C)(=O)[O-])c2)ccc1OCCCC(=O)NCCCS(=O)(=O)[O-].[Eu+3] [Complex 78b] | 5.34 | 1.05 ms | 0.77 ms | 0.42 ms | 0.29 ms |  | 14.5% | 14.5% |  | 0.01% | 330 nm | 39000 M⁻¹ cm⁻¹ |  | 39000 L M^−1 cm^−1 | pH sensitive | Excited state lifetime ([2]; pH 8, listed as 78b): 0.3 ms; Excited state lifetime ([2]; pH 8, listed as drawing 110): 0.30 ms
35000 M⁻¹ cm⁻¹ | CCN(CCCS(=O)(=O)O)c1cc(C#Cc2cc(CN3CCN(Cc4cc(C#Cc5ccc(OC)c(N(CC)CCCS(=O)(=O)O)c5)cc(P(C)(=O)O)n4)CCN(Cc4cc(CCCNC(=O)OC(C)(C)C)cc(P(C)(=O)O)n4)CC3)nc(P(C)(=O)O)c2)ccc1OC [Complex 88a] |  | 1.07 ms | 0.76 ms | 0.41 ms | 0.29 ms | 0.31 ms | 13.4% | 13.4% |  | 0.06% | 332 nm | 35000 M⁻¹ cm⁻¹ | 0.31 ms |  |  | pKa ([1]; 0.1 M NaCl (ionic strength)): 5.2
12000 M⁻¹ cm⁻¹ | CCN(CC)c1cc(C#Cc2cc(CN(CC(=O)O)CC(=O)O)nc(CN(CC(=O)O)CC(=O)O)c2)ccc1OCCCN [Complex 104] |  | 0.38 ms | 0.37 ms | 0.35 ms | 0.32 ms |  | 3.2% | 3.2% | 0.17% | 0.17% | 330 nm | 12000 M⁻¹ cm⁻¹ |  |  | pH sensitive | pKa ([1]; 0.1 M NaCl (ionic strength)): 6.35; Excited state lifetime ([2]; pH 8, listed as 104): 0.3 ms; Excited state lifetime ([2]; pH 8, listed as drawing 127): 0.30 ms

SMILES | ε (molar extinction coefficient) ([4]; at the wavelength (330-336 nm)) | pKa ([1]; 295 K, I = 0.1M NaCl) | Excited state lifetime ([2]; pH 4) | Excited state lifetime ([2]; pH 5) | Excited state lifetime ([2]; pH 6) | Excited state lifetime ([2]; pH 7) | Excited state lifetime ([2]; pH 8) | Q.Y. pH 4 [3] | ΦpH 4 (quantum yield) [3] | Q.Y. pH 8 [3] | ΦpH 8 (quantum yield) [3] | λexc (nm) [4] | ε [4] | Excited state lifetime ([2]; pH 9) | ε (molar extinction coefficient) ([4]; at the wavelength (330-331 nm)) | variation of fluorescence intensity at 620 nm as a function of pH [6] | further results
CCN(CC)c1cc(C#Cc2cc(CN3CCN(Cc4cccc(P(C)(=O)[O-])n4)CCN(Cc4cccc(P(C)(=O)[O-])n4)CC3)nc(P(C)(=O)[O-])c2)ccc1OC.[Eu+3] [Complex 14] | 11450 M⁻¹ cm⁻¹ | 6.75 | 1.16 ms | 1.15 ms | 1.06 ms | 0.74 ms | 0.53 ms | 16.8% | 16.8% | 0.5% | 0.5% | 331 nm | 11450 M⁻¹ cm⁻¹ |  |  |  | Excited state lifetime ([2]; pH 9, listed as 14): 0.5 ms; Excited state lifetime ([2]; pH 9, listed as drawing 59): 0.50 ms; isosbestic point ([4]; absorption spectra pH 4 to 10): not observed
